In PubChem BioAssay (NCI):
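Method: 48-hour compound exposure of cells in 96-well plates, five concentrations, linear interpolation of endpoints. GI50 is the concentration that inhibits growth by half. Definition used: TGI = concentration required for complete inhibition of growth.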

Assays:
Assay in all cases: inhibition of tumour cell growth, NCI panel, 48 h
786-0 renal = test system: 786-0 renal
A498 renal = test system: A498 renal
A549 NSCLC = test system: A549 NSCLC
ACHN renal = test system: ACHN renal
BT-549 breast = test system: BT-549 breast
CAKI-1 renal = test system: CAKI-1 renal
CCRF-CEM leukemia = test system: CCRF-CEM leukemia
COLO 205 colon = test system: COLO 205 colon
DU-145 prostate = test system: DU-145 prostate
EKVX NSCLC = test system: EKVX NSCLC
HCC-2998 colon = test system: HCC-2998 colon
HCT-116 colon = test system: HCT-116 colon
HCT-15 colon = test system: HCT-15 colon
HL-60(TB) leukemia = test system: HL-60(TB) leukemia
HOP-62 NSCLC = test system: HOP-62 NSCLC
HOP-92 NSCLC = test system: HOP-92 NSCLC
HS 578T breast = test system: HS 578T breast
HT29 colon = test system: HT29 colon
IGROV1 ovarian = test system: IGROV1 ovarian
K-562 leukemia = test system: K-562 leukemia
KM12 colon = test system: KM12 colon
LOX IMVI melanoma = test system: LOX IMVI melanoma
M14 melanoma = test system: M14 melanoma
MALME-3M melanoma = test system: MALME-3M melanoma
MCF7 breast = test system: MCF7 breast
MDA-MB-231 breast = test system: MDA-MB-231 breast
MDA-MB-435 = test system: MDA-MB-435
MDA-MB-468 breast = test system: MDA-MB-468 breast
MOLT-4 leukemia = test system: MOLT-4 leukemia
NCI-H226 lung = test system: NCI-H226 lung
NCI-H23 lung = test system: NCI-H23 lung
NCI-H460 lung = test system: NCI-H460 lung
NCI-H522 lung = test system: NCI-H522 lung
NCI/ADR-RES ovarian = test system: NCI/ADR-RES ovarian
OVCAR-3 ovarian = test system: OVCAR-3 ovarian
OVCAR-4 ovarian = test system: OVCAR-4 ovarian
OVCAR-5 ovarian = test system: OVCAR-5 ovarian
OVCAR-8 ovarian = test system: OVCAR-8 ovarian
PC-3 prostate = test system: PC-3 prostate
RPMI-8226 leukemia = test system: RPMI-8226 leukemia
RXF 393 renal = test system: RXF 393 renal
SF-268 CNS = test system: SF-268 CNS
SF-295 CNS = test system: SF-295 CNS
SF-539 CNS = test system: SF-539 CNS
SK-MEL-2 melanoma = test system: SK-MEL-2 melanoma
SK-MEL-28 melanoma = test system: SK-MEL-28 melanoma
SK-MEL-5 melanoma = test system: SK-MEL-5 melanoma
SK-OV-3 ovarian = test system: SK-OV-3 ovarian
SN12C renal = test system: SN12C renal
SNB-19 CNS = test system: SNB-19 CNS
SNB-75 CNS = test system: SNB-75 CNS
SW-620 colon = test system: SW-620 colon
T-47D breast = test system: T-47D breast
TK-10 renal = test system: TK-10 renal
U251 CNS = test system: U251 CNS
UACC-257 melanoma = test system: UACC-257 melanoma
UACC-62 melanoma = test system: UACC-62 melanoma
UO-31 renal = test system: UO-31 renal

Cc1ccc2nc(-c3ccc(-c4nnc(SCC(=O)Nc5ccc(Cl)cc5)o4)cc3)[nH]c2c1
GI50 (786-0 renal): 3.05 µM
TGI (786-0 renal): 10.7 µM
GI50 (A498 renal): 16.3 µM
TGI (A498 renal): 31.4 µM
GI50 (A549 NSCLC): 3.09 µM
TGI (A549 NSCLC): 12.5 µM
GI50 (ACHN renal): 4 µM
TGI (ACHN renal): 15.3 µM
GI50 (BT-549 breast): 16.4 µM
TGI (BT-549 breast): 32.4 µM
GI50 (CAKI-1 renal): 3.59 µM
TGI (CAKI-1 renal): 15.9 µM
GI50 (CCRF-CEM leukemia): 5.91 µM
TGI (CCRF-CEM leukemia): > 100 µM
GI50 (COLO 205 colon): 9.86 µM
TGI (COLO 205 colon): 30.8 µM
GI50 (DU-145 prostate): 7.92 µM
TGI (DU-145 prostate): 47.7 µM
GI50 (EKVX NSCLC): 6.56 µM
TGI (EKVX NSCLC): 21.5 µM
GI50 (HCC-2998 colon): 10.6 µM
TGI (HCC-2998 colon): 23.7 µM
GI50 (HCT-116 colon): 3.01 µM
TGI (HCT-116 colon): 15.2 µM
GI50 (HCT-15 colon): 7.87 µM
TGI (HCT-15 colon): 21.2 µM
GI50 (HL-60(TB) leukemia): 18.5 µM
TGI (HL-60(TB) leukemia): > 100 µM
GI50 (HOP-62 NSCLC): 5.43 µM
TGI (HOP-62 NSCLC): 23.5 µM
GI50 (HOP-92 NSCLC): 5.99 µM
TGI (HOP-92 NSCLC): 24.4 µM
GI50 (HS 578T breast): 10.2 µM
TGI (HS 578T breast): 37.3 µM
GI50 (HT29 colon): 4.73 µM
TGI (HT29 colon): 19.3 µM
GI50 (IGROV1 ovarian): 5.9 µM
TGI (IGROV1 ovarian): 19 µM
GI50 (K-562 leukemia): 3.88 µM
TGI (K-562 leukemia): > 100 µM
GI50 (KM12 colon): 13.3 µM
TGI (KM12 colon): 39 µM
GI50 (LOX IMVI melanoma): 2.17 µM
TGI (LOX IMVI melanoma): 5.64 µM
GI50 (M14 melanoma): 5.75 µM
TGI (M14 melanoma): 25.4 µM
GI50 (MALME-3M melanoma): 10.4 µM
TGI (MALME-3M melanoma): 22.2 µM
GI50 (MCF7 breast): 4 µM
TGI (MCF7 breast): 16.7 µM
GI50 (MDA-MB-231 breast): 4.37 µM
TGI (MDA-MB-231 breast): 16 µM
GI50 (MDA-MB-435): 6.5 µM
TGI (MDA-MB-435): 20.2 µM
GI50 (MDA-MB-468 breast): 4.99 µM
TGI (MDA-MB-468 breast): 17.6 µM
GI50 (MOLT-4 leukemia): 7.02 µM
TGI (MOLT-4 leukemia): 75 µM
GI50 (NCI-H226 lung): 2.96 µM
TGI (NCI-H226 lung): 9.92 µM
GI50 (NCI-H23 lung): 4.37 µM
TGI (NCI-H23 lung): 16.6 µM
GI50 (NCI-H460 lung): 3.67 µM
TGI (NCI-H460 lung): 15.8 µM
GI50 (NCI-H522 lung): 10.2 µM
TGI (NCI-H522 lung): 24.9 µM
GI50 (NCI/ADR-RES ovarian): 4.13 µM
TGI (NCI/ADR-RES ovarian): 14.6 µM
GI50 (OVCAR-3 ovarian): 7.37 µM
TGI (OVCAR-3 ovarian): 22.4 µM
GI50 (OVCAR-4 ovarian): 8.99 µM
TGI (OVCAR-4 ovarian): 28.7 µM
GI50 (OVCAR-5 ovarian): 15.4 µM
TGI (OVCAR-5 ovarian): 38.3 µM
GI50 (OVCAR-8 ovarian): 4.84 µM
TGI (OVCAR-8 ovarian): 16.9 µM
GI50 (PC-3 prostate): 3.73 µM
TGI (PC-3 prostate): 20.5 µM
GI50 (RPMI-8226 leukemia): 9.08 µM
TGI (RPMI-8226 leukemia): > 100 µM
GI50 (RXF 393 renal): 4.41 µM
TGI (RXF 393 renal): 16.5 µM
GI50 (SF-268 CNS): 15.7 µM
TGI (SF-268 CNS): 40.3 µM
GI50 (SF-295 CNS): 3.25 µM
TGI (SF-295 CNS): 12.4 µM
GI50 (SF-539 CNS): 10.9 µM
TGI (SF-539 CNS): 23.1 µM
GI50 (SK-MEL-2 melanoma): 15.5 µM
TGI (SK-MEL-2 melanoma): 33.4 µM
GI50 (SK-MEL-28 melanoma): 7.41 µM
TGI (SK-MEL-28 melanoma): 20.2 µM
GI50 (SK-MEL-5 melanoma): 12.3 µM
TGI (SK-MEL-5 melanoma): 26.4 µM
GI50 (SK-OV-3 ovarian): 7.48 µM
TGI (SK-OV-3 ovarian): 25.4 µM
GI50 (SN12C renal): 4.21 µM
TGI (SN12C renal): 15.8 µM
GI50 (SNB-19 CNS): 6.93 µM
TGI (SNB-19 CNS): 23.8 µM
GI50 (SNB-75 CNS): 10.5 µM
TGI (SNB-75 CNS): 23.9 µM
GI50 (SW-620 colon): 3.73 µM
TGI (SW-620 colon): 19.5 µM
GI50 (T-47D breast): 18.1 µM
TGI (T-47D breast): 69.7 µM
GI50 (TK-10 renal): 6.8 µM
TGI (TK-10 renal): 20.6 µM
GI50 (U251 CNS): 3.23 µM
TGI (U251 CNS): 14.2 µM
GI50 (UACC-257 melanoma): 15.2 µM
TGI (UACC-257 melanoma): 31.5 µM
GI50 (UACC-62 melanoma): 10.1 µM
TGI (UACC-62 melanoma): 21.8 µM
GI50 (UO-31 renal): 10.6 µM
TGI (UO-31 renal): 22.7 µM
